The numbers were not newly measured in patent US20230010484A1, “METHOD FOR THE DECOLORIZATION OF KERATIN MATERIAL THAT HAS BEEN DYED USING A PIGMENT” (Henkel AG & Co. KGaA, priority 2019, published 2023), which cites them from elsewhere.

For the data set the following is noted: 25° C.

In the case of `O=S(=O)([O-])c1ccc(N=Nc2c(O)ccc3ccccc23)cc1.[Na+]` [Acid Orange 7, sodium salt of 4-[(2-hydroxy-1-naphthyl)azo]benzene sulphonate], the solubility in water result is given as “more than 7 g/L”.

On to `Nc1cc(S(=O)(=O)[O-])cc2cc(S(=O)(=O)[O-])c(N=Nc3ccccc3)c(O)c12.[Na+].[Na+]` [Acid Red 33, dinatrium salt of 5-amino-4-hydroxy-3-(phenylazo)-naphthalene-2,7-disulphonate], for which the solubility in water result was “about 2.5 g/L”. Consider `O=C([O-])c1c(Cl)c(Cl)c(Cl)c(Cl)c1-c1c2c(Br)cc(=O)c(Br)c-2oc2c(Br)c(O)cc(Br)c12.O=C([O-])c1c(Cl)c(Cl)c(Cl)c(Cl)c1-c1c2c(Br)cc(=O)c(Br)c-2oc2c(Br)c(O)cc(Br)c12.[Na+].[Na+]` [Acid Red 92, disodium salt of 3,4,5,6-tetrachloro-2-(1,4,5,8-tetrabromo-6-hydroxy-3-oxoxanthen-9-yl)benzoic acid], for which the solubility in water entry is “greater than 10 g/L”. `O=C([O-])C1=NN(c2ccc(S(=O)(=O)[O-])cc2)C(=O)C1N=Nc1ccc(S(=O)(=O)[O-])cc1.[Na+].[Na+].[Na+]` (stereo not shown) [Acid Yellow 23, trisodium salt of 4,5-dihydro-5-oxo-1-(4-sulfophenyl)-4-((4-sulfophenyl)azo)-1H-pyrazole-3-carboxylic acid]: the “solubility in water (in words)” value is “highly soluble”.
